From patent publication US20090202618A1, “Dna vaccines encoding hsp60 peptide fragments for treating autoimmune diseases” (Yeda Research & Development Co. Ltd, priority 2003, published 2009)

System: LNC
Experiment: LNC proliferative response to overlapping peptides of HSP60
Type: cell-based, Lewis rats
Conditions: day 26 after AA induction, SI±SEM, SI<2 considered not significant
Protocol: T-cell proliferation assays were performed at day 26 after the induction of AA, when the disease is at its peak, as previously described (Quintana et al., 2002). Briefly, popliteal and inguinal lymph node cells (LNC), were cultured in quadruplicates in 200 μl round bottom microtiter wells (Costar Corp., Cambridge, USA) at 2×10^5 cells per well with or without antigen. The T-cell mitogen Concanavalin A (Con A) was used as a positive control for T-cell proliferation. Cultures were incubated for 96 hr at 37° C. in a humidified atmosphere of 5% CO2. T-cell responses were detected by the incorporation of [methyl-3H]-thymidine (Amersham, Buckinghamshire, UK; 1 μCi/well), which was added to the wells for the last 18 hr. The stimulation index (SI) was computed as the ratio of the mean c.p.m. of antigen- or mitogen-containing wells to control wells cultured with medium alone. The results of T-cell proliferation experiments are shown as SI±SEM, T-cell responses with SI<2 were considered not significant.
It was previously reported that the suppression of AA by pHSP60 DNA vaccination was associated with T-cell reactivity to a single HSP60 peptide epitope, Hu3 (Quintana et al., 2003). […]

**Q.** What does the source list for “KFGADARALMLQGVDLLADA (human hsp60 epitope) [Hu3]”?
**A.** Stimulation Index (SI) (LNC from pHSP70-vaccinated rats): did not respond; Stimulation Index (SI) (LNC from pcDNA3-vaccinated rats): did not respond
